Data taken from PubChem BioAssay (NCI).
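Interpolation was linear, between the two tested concentrations surrounding the appropriate level; five concentrations were tested over 48 hours in 96-well plates. Here, GI50 denotes the concentration required for 50% inhibition of growth. TGI: concentration producing complete growth inhibition.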

Columns and labels:
Experiment in all cases: NCI-60 cell line screen, 48 h
[1] = test system: 786-0 renal
[2] = test system: A498 renal
[3] = test system: A549 NSCLC
[4] = test system: ACHN renal
[5] = test system: CAKI-1 renal
[6] = test system: CCRF-CEM leukemia
[7] = test system: COLO 205 colon
[8] = test system: DU-145 prostate
[9] = test system: EKVX NSCLC
[10] = test system: HCC-2998 colon
[11] = test system: HCT-15 colon
[12] = test system: HL-60(TB) leukemia
[13] = test system: HOP-62 NSCLC
[14] = test system: HOP-92 NSCLC
[15] = test system: HT29 colon
[16] = test system: IGROV1 ovarian
[17] = test system: K-562 leukemia
[18] = test system: LOX IMVI melanoma
[19] = test system: M14 melanoma
[20] = test system: MALME-3M melanoma
[21] = test system: MCF7 breast
[22] = test system: MDA-MB-231 breast
[23] = test system: MDA-MB-435
[24] = test system: MDA-MB-468 breast
[25] = test system: MOLT-4 leukemia
[26] = test system: NCI-H226 lung
[27] = test system: NCI-H23 lung
[28] = test system: NCI-H460 lung
[29] = test system: NCI-H522 lung
[30] = test system: OVCAR-3 ovarian
[31] = test system: OVCAR-4 ovarian
[32] = test system: OVCAR-5 ovarian
[33] = test system: OVCAR-8 ovarian
[34] = test system: PC-3 prostate
[35] = test system: RPMI-8226 leukemia
[36] = test system: RXF 393 renal
[37] = test system: SF-268 CNS
[38] = test system: SF-295 CNS
[39] = test system: SF-539 CNS
[40] = test system: SK-MEL-2 melanoma
[41] = test system: SK-MEL-28 melanoma
[42] = test system: SK-MEL-5 melanoma
[43] = test system: SK-OV-3 ovarian
[44] = test system: SN12C renal
[45] = test system: SNB-19 CNS
[46] = test system: SNB-75 CNS
[47] = test system: SR leukemia
[48] = test system: SW-620 colon
[49] = test system: T-47D breast
[50] = test system: TK-10 renal
[51] = test system: U251 CNS
[52] = test system: UACC-257 melanoma
[53] = test system: UACC-62 melanoma
[54] = test system: UO-31 renal

C=C1CC[C@@H]2[C@]3(C)COC(c4cn(-c5ccccc5)nc4-c4cccc([N+](=O)[O-])c4)O[C@@H]3CC[C@@]2(C)[C@@H]1C/C=C1/C(=O)OC[C@H]1O (stereo partly drawn)
GI50 [1]: 3.04 µM | TGI [1]: 10.3 µM | GI50 [2]: 18.9 µM | TGI [2]: 45.4 µM | GI50 [3]: 3.62 µM | TGI [3]: > 100 µM | GI50 [4]: 1.89 µM | TGI [4]: 3.62 µM | GI50 [5]: 2.81 µM | TGI [5]: > 100 µM | GI50 [6]: 1.14 µM | TGI [6]: 5.01 µM | GI50 [7]: 2.41 µM | TGI [7]: 5.06 µM | GI50 [8]: 4.11 µM | TGI [8]: 24.3 µM | GI50 [9]: 2.75 µM | TGI [9]: 7.98 µM | GI50 [10]: 1.92 µM | TGI [10]: 3.53 µM | GI50 [11]: 1.74 µM | TGI [11]: 3.58 µM | GI50 [12]: 1.73 µM | TGI [12]: > 100 µM | GI50 [13]: 3.15 µM | TGI [13]: 12.4 µM | GI50 [14]: 1.86 µM | TGI [14]: 3.64 µM | GI50 [15]: 1.82 µM | TGI [15]: 4.26 µM | GI50 [16]: 2.08 µM | TGI [16]: 4.27 µM | GI50 [17]: 2.16 µM | TGI [17]: > 100 µM | GI50 [18]: 1.72 µM | TGI [18]: 3.34 µM | GI50 [19]: 2.08 µM | TGI [19]: 4.52 µM | GI50 [20]: 1.78 µM | TGI [20]: 3.55 µM | GI50 [21]: 2.64 µM | TGI [21]: > 100 µM | GI50 [22]: 1.84 µM | TGI [22]: 3.44 µM | GI50 [23]: 3.03 µM | TGI [23]: 18.3 µM | GI50 [24]: 1.76 µM | TGI [24]: 3.52 µM | GI50 [25]: 2.87 µM | TGI [25]: > 100 µM | GI50 [26]: 2.38 µM | TGI [26]: 6.59 µM | GI50 [27]: 1.83 µM | TGI [27]: 3.55 µM | GI50 [28]: 2.27 µM | TGI [28]: 4.8 µM | GI50 [29]: 1.75 µM | TGI [29]: 3.41 µM | GI50 [30]: 1.87 µM | TGI [30]: 3.75 µM | GI50 [31]: 4.05 µM | TGI [31]: > 100 µM | GI50 [32]: 2.06 µM | TGI [32]: 5.05 µM | GI50 [33]: 1.9 µM | TGI [33]: 5.04 µM | GI50 [34]: 2.75 µM | TGI [34]: 9.04 µM | GI50 [35]: 2.45 µM | TGI [35]: > 100 µM | GI50 [36]: 1.62 µM | TGI [36]: 3.2 µM | GI50 [37]: 7.65 µM | TGI [37]: > 100 µM | GI50 [38]: 1.68 µM | TGI [38]: 3.19 µM | GI50 [39]: 1.74 µM | TGI [39]: 3.18 µM | GI50 [40]: 1.78 µM | TGI [40]: 3.51 µM | GI50 [41]: 2.04 µM | TGI [41]: 4.06 µM | GI50 [42]: 1.63 µM | TGI [42]: 3 µM | GI50 [43]: 29.8 µM | TGI [43]: > 100 µM | GI50 [44]: 2.93 µM | TGI [44]: 10.3 µM | GI50 [45]: 3.65 µM | TGI [45]: 15 µM | GI50 [46]: 7.34 µM | TGI [46]: 50.1 µM | GI50 [47]: 3.46 µM | TGI [47]: > 100 µM | GI50 [48]: 2.21 µM | TGI [48]: 5.13 µM | GI50 [49]: 1.76 µM | TGI [49]: 5.02 µM | GI50 [50]: 2.22 µM | TGI [50]: 5.82 µM | GI50 [51]: 1.74 µM | TGI [51]: 3.35 µM | GI50 [52]: 1.8 µM | TGI [52]: 3.68 µM | GI50 [53]: 1.69 µM | TGI [53]: 3.46 µM | GI50 [54]: 1.82 µM | TGI [54]: 5.46 µM
